Experimental data from patent US20260240819A1, “KAT6 INHIBITOR METHODS AND COMBINATIONS FOR CANCER TREATMENT” (Pfizer Inc., priority 2020, published 2026).
pIC50: −log10 of the molar value. “And” between values parts separate entries of the source, which are not always exact repeats. Equal entries are not always repeated.

Key:
[1] = tested on: MCF7 cells; test: Palbociclib recovery colony formation assay (SRB stain); assay type: cell-based; conditions: Homo sapiens, read-out: Concentration giving 50% inhibition of recovery; MCF7, with 500 nM palbociclib 14 days, then 10 days recovery
Experimental: (§1) T47D, ZR-75-1, or MCF7 cells were seeded into 6-well tissue culture plates at 10% seeding confluence (100,000-150,000 cells per well). After allowing 18-24 hours for the cells to attach to the wells, growth media was aspirated and discarded and new growth media containing 0-20 μM of either COMPOUND A or COMPOUND B was added in 2-fold increments of descending concentration from 20 μM to the cells (proliferation assay). In parallel, seeded cultures with the same titration of the KAT6 inhibitors was added to the cells. 500 nM palbociclib was also added for each concentration of the KAT6 inhibitors (palbociclib recovery assay). The cultures were incubated 12-14 days and treated with these inhibitors/inhibitor combinations. Growth media containing the inhibitors was replaced on the cell cultures every 3-4 days (twice per week).
(§2) The MCF7 cells were tested with COMPOUND A. For the single agent treated MCF7 cultures, the vehicle treated cultures were >90% confluent after 10 days of treatment. These cultures were SRB stained, scanned, and destained/measured as described above. […] After 10 days of recovery, the MCF7 cultures that had been treated with single agent 500 nM palbociclib were >90% confluent and these palbociclib recovery assay cultures were SRB stained, scanned, and destained/measured as described above.

[2] = tested on: ZR-75-1 cells; test: Proliferation colony formation assay (SRB stain); assay type: cell-based; conditions: Homo sapiens, 288 h, read-out: Concentration giving 50% inhibition of proliferation; ZR-75-1, single agent, 12 days
Experimental: as §1
(§3) For the ZR-75-1 and MCF7 experiments, only COMPOUND A was tested. For the single agent treated ZR-75-1 cultures the vehicle treated cultures were >90% confluent after 12 days of treatment. These cultures were SRB stained, scanned, and destained/measured as described above. […] After 22 days of recovery, the ZR-75-1 cultures that had been treated with single agent 500 nM palbociclib were >90% confluent and these palbociclib recovery assay cultures were SRB stained, scanned, and destained/measured as described above.
Cells were plated at low density into 6-well culture dishes and allowed to attach overnight at 37° C., 5% CO2. […] At the end of treatment, cells were washed once with phosphate-buffered saline and were fixed and stained with SRB for visualization followed by quantification. […] Wells were fixed and stained with SRB for visualization followed by quantification. To quantify the stain, stained cells were dissolved in 2 mL of 10 mM Tris-HCl, pH 7.5 and shaken for 10 min on a shaker. Samples were then diluted with 10 mM Tris-HCl, pH 7.5, transferred to a 96-well microtiter plate in a volume of 100 μL and read on SpetraMax at 565 nm.

[3] = tested on: T47D cells; test: Proliferation colony formation assay (SRB stain); assay type: cell-based; conditions: Homo sapiens, 288 h, single agent, 12 days, read-out: Concentration giving 50% proliferation inhibition
Experimental: as §1
For the KAT6 inhibitor treated T47D cultures (proliferation assay), after 12 days the vehicle (DMSO) treated cultures were >90% confluent and the cell cultures were SRB stained as described in Example 3. The stained 6-well plates were scanned using an Epson Perfection V600 Photo Scanner and Epson Scan version 3.9.2.0 software. To quantitate SRB staining in each 6-well culture, the cultures were destained with 2 mL 10 mM Tris pH 7.5 per well and the absorbance at 565 nm (O.D. 565) of the released stain was measured using a SpectraMax Plus plate reader and SoftMaxPro 5.4.3 software. Inhibition of T47D cell proliferation by both COMPOUND A and COMPOUND B were equivalent with 50% proliferation inhibition observed with 10 μM of the KAT6 inhibitors (FIGS. 8A and 8C).
Cells were plated at low density into 6-well culture dishes and allowed to attach overnight at 37° C., 5% CO2. The next day, in parallel to the proliferation set, palbociclib was added at a final concentration of […] to another set of plates, which served as the set for palbociclib recovery. To both proliferation and palbociclib recovery plates, DMSO or KAT6 inhibitor was added into each well at increasing doses. Medium and KAT6 inhibitor were refreshed twice a week. Cells were cultured for about two weeks of drug treatment until the DMSO-treated wells reached confluency. At the end of treatment, cells were washed once with phosphate-buffered saline and were fixed and stained with SRB for visualization followed by quantification. […] Wells were fixed and stained with SRB for visualization followed by quantification. To quantify the stain, stained cells were dissolved in 2 mL of 10 mM Tris-HCl, pH 7.5 and shaken for 10 min on a shaker. Samples were then diluted with 10 mM Tris-HCl, pH 7.5, transferred to a 96-well microtiter plate in a volume of 100 μL and read on SpetraMax at 565 nm.

[4] = tested on: ZR-75-1 cells; test: Palbociclib recovery colony formation assay (SRB stain); assay type: cell-based; conditions: Homo sapiens, read-out: Concentration giving 50% inhibition of recovery; ZR-75-1, with 500 nM palbociclib 14 days, then 22 days recovery
Experimental: as §1, §3

[5] = tested on: T47D cells; test: as above; assay type: cell-based; conditions: Homo sapiens, read-out: KAT6 inhibitor concentration giving 50% inhibition of recovery, with 500 nM palbociclib 14 days, then 14 days recovery
Experimental: as §1
For the T47D cultures arrested with 500 nM palbociclib and treated with increasing concentration of the KAT6 inhibitors (palbociclib recovery assay), after 14 days of combination treatment the growth media containing the inhibitors was aspirated from the cultures and discarded. […] After allowing 14 days for the cultures to recover, those that recovered from single agent 500 nM palbociclib arrest were >90% confluent and all the palbociclib recovery cultures were SRB stained, scanned, and destained/measured as described above. […]

[6] = tested on: MCF7 cells; test: Proliferation colony formation assay (SRB stain); assay type: cell-based; conditions: Homo sapiens, 240 h, read-out: Concentration giving 50% inhibition of proliferation; MCF7, single agent, 10 days
Experimental: as §1, §2

[7] = tested on: ESR1 (encoding estrogen receptor alpha (ERα)) expression in T47D cells; test: GeneChip gene expression analysis; assay type: cell-based; conditions: 10 μM, 6 days
Experimental: T47D cell lines having either the Tet-ON KAT6A_5, KAT6A_6, or shRenilla shRNAs were treated with 0.2 μg/mL doxycycline to induce expression of the respective shRNA in the T47D cells and initiate knockdown of KAT6A (KAT6A_5 and KAT6A_6 cells only). The cells were treated with doxycycline for 4 days, which provided suffient time for KAT6A protein depletion in the cells. On day 3 of doxycycline treatment, the KAT6A_5, KAT6A_6, and shRenilla T47D cells were suspended and seeded into 6-well tissue cultures plates at 10% confluence. Parental T47D cells (no shRNA) were also seeded into 6-well tissue culture plates at 10% confluence. On day 4 after shRNA induction, half the T47D KAT6A_5, KAT6A_6, and shRenilla cultures were treated with 0.5 μM palbociclib and half the cultures were kept untreated. All cultures were kept in growth media containing 0.2 μg/mL doxycycline to maintain KAT6A knockdown in the cells throughout the experiment. The parental T47D cells were split into four groups as follows: (1) vehicle treated (DMSO), (2) vehicle+0.5 μM palbociclib, (3) 10 μM COMPOUND A treated, and (4) 10 μM COMPOUND A+0.5 μM palbociclib. The parental T47D and T47D-shRNA cell lines were subsequently treated for 6 days and the growth media, containing the inhibitors represented the different growth conditions described above, was replaced once on day 3 of treatment. […]

[8] = Bodyweight and health monitoring, PDX ST340 study; assay type: in vivo, female athymic nude mice; conditions: relative to day 0
Experimental: (§4) Combination studies with palbociclib, fulvestrant and the KAT6 inhibitor, Compound E (KAT6i), were performed in two ER+ breast cancer PDX models: ST340 and ST941. ST340 was wildtype for ESR1. […] Both studies were conducted by XenoSTART (San Antonio, Texas), where 6-12 week-old female athymic nude mice (JAX, stock #007850) were subcutaneously implanted with ~70 mg tumor fragments. Animals were supplemented with exogenous estradiol ad libitum via drinking water throughout the duration of the studies. Tumor measurements and animal weights were captured twice per week, and animals were stratified and enrolled into the study when the mean tumor volume (TV, formula: width^2×length×0.5) reached 150-300 mm^3.
(§5) Each study contained eight treatment groups of n=10 animals per group. The groups were as follows: 1) Vehicle (5% DMSO/40% PEG300/55% 1×PBS), 2) Compound E, 3) palbociclib, 4) fulvestrant, 5) palbociclib+fulvestrant, 6) Compound E +fulvestrant, 7) Compound E+palbociclib, and 8) Compound E+palbociclib+fulvestrant. Animals remained on study and were continued on treatments until the mean tumor volume of each group reached ~1500 mm^3. At that point, the final dose was administered, animals were sacrificed, and terminal samples were collected. Blood microsamples were collected from each group for pharmacokinetics (PK) analysis at 0, 3, and 7 hrs (n=3/timepoint) on day 14 of dosing and again on the terminal day of dosing.
(§6) Analysis of covariance (ANCOVA) was used to determine statistical significance when comparing percent TGI between groups. Changes in bodyweights were calculated in relation to starting bodyweights at study initiation (day 0 of treatment).

[9] = Bodyweight and health monitoring, PDX ST941 study; assay type: in vivo, female athymic nude mice; conditions: relative to day 0
Experimental: as §4, §5, §6

[10] = tested on: ER+ breast cancer PDX model ST340; test: PDX tumor growth inhibition study; assay type: in vivo, female athymic nude mice; conditions: doses per Table 7; for % TGI Delta: PDX ST340, day 21, compared to Vehicle; for Mean ± SEM (day 21): PDX ST340, tumor volume (mm^3)
Experimental: as §4, §5, §6

Row | Compound | pIC50 [1] | pIC50 [2] | pIC50 [3] | pIC50 [4] | pIC50 [5] | pIC50 [6] | ESR1 expression and downstream ERα regulated genes [7] | Day 21 mean change in bodyweight [8] | Maximum mean bodyweight loss [8] | Day 17 mean change in bodyweight [9] | Maximum mean bodyweight loss [9] | % TGI Delta [10] | Mean ± SEM (day 21) [10] | % TGI Delta ([10]; listed as fulvestrant)
1 | Cc1cc(-c2ccccc2)cc(C(=O)NNS(=O)(=O)c2ccccc2)c1F [COMPOUND A, N′-(4-fluoro-5-methyl-[1,1′-biphenyl]-3-carbonyl)benzenesulfonohydrazide] | 5.30 | 6.52 | 5.00 | 5.60 | 5.30 | < 4.70 | significant downregulation | – | – | – | – | – | – | –
2 | O=C(NNS(=O)(=O)c1ccccc1)c1cc(-c2ccccc2)cc(Cl)c1F [COMPOUND B, N′-(5-chloro-4-fluoro-[1,1′-biphenyl]-3-carbonyl)benzenesulfonohydrazide] | – | – | 5.00 | – | 5.60 | – | – | – | – | – | – | – | – | –
3 | COc1ccccc1S(=O)(=O)Nc1noc2cc(Cn3cccn3)cc(OC)c12 [Compound E, 2-methoxy-N-{4-methoxy-6-[(1H-pyrazol-1-yl)methyl]-1,2-benzoxazol-3-yl}benzene-1-sulfonamide] | – | – | – | – | – | – | – | −2% | −4% | +5% | −4% | 55% and 55.4% | 882 ± 86 | –
4 | C[C@]12CC[C@@H]3c4ccc(O)cc4C[C@@H](CCCCCCCCC[S+]([O-])CCCC(F)(F)C(F)(F)F)[C@H]3[C@@H]1CC[C@@H]2O (stereo partly shown) [Fulvestrant] | – | – | – | – | – | – | – | +5% | −2% | 0% | −5% | 21.3% | 1370 ± 195 | ~ 20%
